The values that follow come from ChEMBL document CHEMBL1143446, “Azaflavones compared to flavones as ligands to the benzodiazepine binding site of brain GABA(A) receptors” (Bioorg Med Chem Lett, 2008).

Experiment [1] is described as follows: Displacement of [3H]flumazenil from GABAA in rat cortical tissue.
The target of experiment [2] is Gamma-aminobutyric acid receptor subunit alpha-3 (Rattus norvegicus, UniProt P18508+P20236+P63079). In words: Displacement of [3H]flumazenil in rat GABAA alpha-3-beta-3-gamma-2 receptor expressed in HEK293 cells. In kind it is cell-based. On the technique in general: In a radioligand displacement assay an active substance lowers the binding of a labelled ligand.
Experiment [3] deals with GABA-A receptor; alpha-1/beta-3/gamma-2 (Rattus norvegicus). In words: Displacement of [3H]flumazenil in rat GABAA alpha-1-beta-3-gamma-2 receptor expressed in HEK293 cells.
Experiment [4] concerns the target GABA-A receptor; alpha-2/beta-3/gamma-2 (Rattus norvegicus). Briefly: Displacement of [3H]flumazenil in rat GABAA alpha-2-beta-3-gamma-2 receptor expressed in HEK293 cells.
The species entered for experiment [5] is Rattus norvegicus. Briefly: Selectivity ratio of Ki for rat GABAA alpha-2-beta-3-gamma-2 receptor to Ki for GABAA alpha-1-beta-3-gamma-2 receptor.
The species named for experiment [6] is Rattus norvegicus. Briefly: Selectivity ratio of Ki for rat GABAA alpha-3-beta-3-gamma-2 receptor to Ki for GABAA alpha-1-beta-3-gamma-2 receptor.
The target in experiment [7] is GABA A receptor alpha-5/beta-3/gamma-2 (Rattus norvegicus, UniProt P18508+P19969+P63079). In words: Displacement of [3H]flumazenil in rat GABAA alpha-5-beta-3-gamma-2 receptor expressed in HEK293 cells. Type of experiment: cell-based.
Sequence of GABA A receptor alpha-5/beta-3/gamma-2 (P18508 whole entry): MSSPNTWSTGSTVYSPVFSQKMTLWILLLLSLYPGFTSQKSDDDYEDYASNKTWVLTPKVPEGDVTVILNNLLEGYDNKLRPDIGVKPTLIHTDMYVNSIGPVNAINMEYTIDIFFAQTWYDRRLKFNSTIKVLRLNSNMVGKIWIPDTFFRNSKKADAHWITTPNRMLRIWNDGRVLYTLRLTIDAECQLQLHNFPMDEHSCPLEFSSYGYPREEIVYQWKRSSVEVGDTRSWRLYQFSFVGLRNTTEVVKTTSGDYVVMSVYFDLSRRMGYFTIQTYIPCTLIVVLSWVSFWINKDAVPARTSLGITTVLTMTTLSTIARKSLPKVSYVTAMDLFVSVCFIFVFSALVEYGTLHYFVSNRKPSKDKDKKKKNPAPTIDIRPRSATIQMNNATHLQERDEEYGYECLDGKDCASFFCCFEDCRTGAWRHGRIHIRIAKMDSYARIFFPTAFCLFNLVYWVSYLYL
Sequence of GABA A receptor alpha-5/beta-3/gamma-2 (P19969 whole entry): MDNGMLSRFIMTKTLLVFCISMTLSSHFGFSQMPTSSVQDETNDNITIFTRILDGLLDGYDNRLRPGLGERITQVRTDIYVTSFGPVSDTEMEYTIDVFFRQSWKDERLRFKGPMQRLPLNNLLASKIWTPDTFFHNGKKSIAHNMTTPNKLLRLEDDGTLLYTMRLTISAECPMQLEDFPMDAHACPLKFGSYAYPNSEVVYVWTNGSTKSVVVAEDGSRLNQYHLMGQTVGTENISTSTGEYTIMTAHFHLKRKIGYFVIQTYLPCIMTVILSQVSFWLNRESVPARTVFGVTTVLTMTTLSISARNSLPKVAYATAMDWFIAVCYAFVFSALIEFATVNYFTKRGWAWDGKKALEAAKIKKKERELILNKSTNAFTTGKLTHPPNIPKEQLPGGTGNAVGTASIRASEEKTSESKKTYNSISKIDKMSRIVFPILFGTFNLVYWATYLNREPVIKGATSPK
Sequence of GABA A receptor alpha-5/beta-3/gamma-2 (P63079 whole entry): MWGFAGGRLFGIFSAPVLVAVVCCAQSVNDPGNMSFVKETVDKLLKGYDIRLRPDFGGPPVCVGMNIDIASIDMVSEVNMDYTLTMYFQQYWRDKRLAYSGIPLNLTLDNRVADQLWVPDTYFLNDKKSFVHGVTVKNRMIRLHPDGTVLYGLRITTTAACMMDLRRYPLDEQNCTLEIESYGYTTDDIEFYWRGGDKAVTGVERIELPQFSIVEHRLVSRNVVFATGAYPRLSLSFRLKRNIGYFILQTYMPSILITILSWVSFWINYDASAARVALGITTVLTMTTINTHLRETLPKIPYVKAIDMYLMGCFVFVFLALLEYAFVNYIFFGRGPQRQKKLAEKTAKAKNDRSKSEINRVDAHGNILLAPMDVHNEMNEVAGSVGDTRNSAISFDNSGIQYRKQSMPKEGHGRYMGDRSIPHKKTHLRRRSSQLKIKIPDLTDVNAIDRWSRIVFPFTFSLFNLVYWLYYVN

Sequence of Gamma-aminobutyric acid receptor subunit alpha-3 (P20236 whole entry, one chain of several): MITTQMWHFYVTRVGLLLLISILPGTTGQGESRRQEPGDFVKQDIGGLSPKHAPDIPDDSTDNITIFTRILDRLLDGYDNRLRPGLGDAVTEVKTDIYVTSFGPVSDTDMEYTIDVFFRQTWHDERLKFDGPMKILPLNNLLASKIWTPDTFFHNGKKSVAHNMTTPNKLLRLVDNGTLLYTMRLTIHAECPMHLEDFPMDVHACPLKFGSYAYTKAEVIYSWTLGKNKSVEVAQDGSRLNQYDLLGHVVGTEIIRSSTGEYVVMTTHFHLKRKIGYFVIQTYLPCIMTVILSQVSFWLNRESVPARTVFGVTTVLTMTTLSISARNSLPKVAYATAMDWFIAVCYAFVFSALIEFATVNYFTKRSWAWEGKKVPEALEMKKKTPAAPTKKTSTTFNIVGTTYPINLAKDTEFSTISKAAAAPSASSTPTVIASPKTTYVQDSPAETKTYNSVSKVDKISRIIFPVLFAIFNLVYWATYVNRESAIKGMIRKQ

As usually defined, the Ki is a dissociation constant, usually derived from enzyme kinetics or from competition with a known ligand. Lower therefore signals higher affinity. In the case of `CCc1ccc2oc(-c3ccccc3)cc(=O)c2c1`, the affinity in experiment [1], expressed as Ki, was 180 nM.
In turn, `CCc1ccc2[nH]c(-c3ccccc3)cc(=O)c2c1` gave a Ki in experiment [1] of 1200 nM.
In experiment [1], `COc1ccc(Br)cc1-c1cc(=O)c2cc(C)ccc2[nH]1` displayed a Ki of 730 nM.
Same read-out and setting: under `Cc1ccc2nc(-c3cc(Br)ccc3O)cc(N3CCOCC3)c2c1` stands 840 nM.
Regarding `Cc1ccc2nc(-c3cc(Br)ccc3O)cc(O)c2c1`, the Ki in experiment [2] stood at 99 nM; in experiment [3], 39 nM; in experiment [4], 120 nM.
As to `Cc1ccc2[nH]c(-c3cc(Br)ccc3O)cc(=O)c2c1`, the affinity in experiment [1] corresponds to a Ki of 22 nM. For the same molecule, the Selectivity ratio in the experiment listed under Rattus norvegicus [5] came to 5; in the experiment filed under Rattus norvegicus [6], 8.
In the case of `COc1ccc(Br)cc1-c1cc(=O)c2cc(C)ccc2o1`, the Ki in experiment [1] is > 1500 nM.
For `Cc1ccc2c(c1)c(=O)cc(-c1cc(Br)ccc1O)n2C`, in experiment [1], the Ki was 1100 nM. For the same molecule, the results for the Selectivity ratio in the experiment listed under Rattus norvegicus [5] and in the experiment listed under Rattus norvegicus [6] were 5 and 8, respectively.
`Cc1ccc2nc(-c3cc(Cc4ccccc4)ccc3O)cc(N3CCOCC3)c2c1`: affinity in experiment [1] was put at a Ki of 400 nM.
In the case of `Cc1ccc2[nH]c(-c3cc(Cc4ccccc4)ccc3O)cc(=O)c2c1`, the Ki worked out at 2 nM in experiment [1]; 31 nM in experiment [2]; 7.3 nM in experiment [7]; 1.2 nM in experiment [3]; 18 nM in experiment [4]. For the same molecule, the figures for the Selectivity ratio in the experiment filed under Rattus norvegicus [5] and in the experiment listed under Rattus norvegicus [6] were 5 and 8, respectively.
For the molecule `Cc1ccc2oc(-c3cc(Cc4ccccc4)ccc3O)cc(=O)c2c1`, the Ki in experiment [1] was 0.6 nM; in experiment [2], 11 nM; in experiment [7], 2.4 nM; in experiment [3], 0.8 nM; in experiment [4], 19 nM.
For the molecule `Cc1ccc2oc(-c3cc(Br)ccc3O)cc(=O)c2c1`, in experiment [1], the Ki amounted to 0.9 nM. The Selectivity ratio in the experiment listed under Rattus norvegicus [5] was determined as 5; in the experiment filed under Rattus norvegicus [6], 8.
